The values below come from patent US8729132B2, “Agomelatine hydrobromide hydrate and preparation thereof” (Les Laboratoires Servier, priority 2010, dated 2014).

What all share (format): physicochemical
The nature of series [1]: Water solubility by HPLC, external standard method. The procedure:
Using external standard method, the product of example 1 was tested with HPLC, compared with agomelatine crystalline form II.

A short description of series [2]: Stability test, incubator at 40° C. for 30 days, HPLC. The procedure:
Chromatographic conditions: C18 column; mobile phase: 10 mmol/L phosphate buffer (adjusted to pH 7.0 with NaOH): acetonitrile=2:7 (v/v); column temperature: 40° C.; detection wavelength: 220 nm; internal standard method was used on the products of examples 1 and 2.
Solutions of the products at 1 mg/mL were prepared with the mobile phase. 10 μL of each solution was injected into the liquid chromatograph system and chromatograms were recorded. The results of the purity are shown in examples 1 and 2.
The product of example 1 was placed in an incubator at 40° C. for 30 days to determine its stability with HPLC.

A short description of series [3]: Stability test per Chinese Pharmacopoeia (affecting factors, accelerated, long-term). Conditions: for Water: initial 5.25%; for Br: initial 23.21%; for Purity of agomelatine hydrobromide hydrate: initial value 99.89%. As to the method: The method for stability test as described in Chinese Pharmacopoeia was used in this test. • 1) Affecting factors test (in open container for 10 days): high temperature (60° C.), photostability under strong light ([…]), high humidity (92.5% RH at 25° C.) • 2) Accelerated test (in closed container for 6 months): at 40° C., humidity: 75% RH • 3) Long-term test (in closed container for 9 months): at 25° C., humidity: 60% RH

Where [4] appears, read: Accelerated test: closed container, 6 months, 40° C., 75% RH.
[5] abbreviates: Affecting factors: high humidity (92.5% RH at 25° C.), open container, 10 days.
Where [6] appears, read: Affecting factors: high temperature (60° C.), open container, 10 days.
Where [7] appears, read: Affecting factors: strong light (45001x), open container, 10 days.
[8] abbreviates: Long-term test: closed container, 9 months, 25° C., 60% RH.

Where a name gives a salt, the structure may show the parent alone.

For `COc1ccc2cccc(CCNC(C)=O)c2c1` [AG crystalline form II, N-[2-(7-methoxy-1-naphthyl)ethyl]-acetamide, reference compound], the Agomelatine content in series [1] (In 0.1N HCl) is 0.30 mg/mL; in series [1] (In pH 7.0 buffer) it was 0.25 mg/mL; in series [1] (In water), 0.26 mg/mL.

Take `COc1ccc2cccc(CCNC(C)=O)c2c1` [AG•HBr•H2O, agomelatine hydrobromide hydrate]: the “stability with HPLC (purity)” value was 99.7% in series [2] (Day 0), 99.7% in series [2] (Day 5), 99.6% in series [2] (Day 10) and 99.6% in series [2] (Day 30). In addition, the Agomelatine content in series [1] (In 0.1N HCl, hydrobromide hydrate) was 0.37 mg/mL; in series [1] (In pH 7.0 buffer, hydrobromide hydrate), 0.31 mg/mL; in series [1] (In water, hydrobromide hydrate) it was 0.33 mg/mL. The “solubility compared with agomelatine per se” value in series [1] (in water, 0.1N HCl or pH 7.0 buffer) is “better solubility than agomelatine per se”. Further, the Water is on record as 5.41% in series [3] (setting [4]); 5.45% in series [3] (setting [5]); 5.18% in series [3] (setting [6]); 5.22% in series [3] (setting [7]); 5.18% in series [3] (setting [8]). The Br is 23.07% in series [3] (setting [4]); 23.11% in series [3] (setting [5]); 21.95% in series [3] (setting [6]); 22.61% in series [3] (setting [7]); 22.52% in series [3] (setting [8]). In addition, the “Purity of agomelatine hydrobromide hydrate” value in series [3] (setting [4]) was 99.83%; in series [3] (setting [5]) it was 99.83%; in series [3] (setting [6]), 99.87%; in series [3] (setting [7]), 99.71%; in series [3] (setting [8]), 99.84%. Also, the “stability (overall conclusion)” value in series [3] (affecting factors, accelerated and long-term tests) is “stable”.
